# Patent US20150274664A1 (MERCK SHARP & DOHME CORP., priority 2012, published 2015)
# Molecular target: T1, human SNP variant (S309L) of GPR119 (Homo sapiens, UniProt Q8TDV5, S309L)
# T1 construct: expressed in transfected cells; host or cells: HEK293 Flp-In (Invitrogen)
# T1 sequence (Q8TDV5 1-335 S309L): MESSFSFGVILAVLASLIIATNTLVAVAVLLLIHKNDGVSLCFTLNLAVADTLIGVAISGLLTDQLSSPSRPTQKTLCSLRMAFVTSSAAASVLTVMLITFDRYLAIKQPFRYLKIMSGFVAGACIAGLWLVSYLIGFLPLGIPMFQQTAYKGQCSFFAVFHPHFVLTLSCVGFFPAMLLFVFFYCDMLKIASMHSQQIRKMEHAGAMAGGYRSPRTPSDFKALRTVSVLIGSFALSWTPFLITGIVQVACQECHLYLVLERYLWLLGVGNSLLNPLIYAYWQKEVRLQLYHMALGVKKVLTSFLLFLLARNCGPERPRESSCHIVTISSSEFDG
# Assay: GPR119 signaling, cAMP homogenous time resolved fluorescence (HTRF) assay
# Assay type: cell-based
# Details: HEK293 Flp-In cells stably transfected with human GPR119 (S309L), HTRF kit
# Description: Measurement of GPR119 Signaling Using a Cyclic AMP (cAMP) Homogenous Time Resolved Fluorescence (HTRF) Assay
# Chinese hamster ovary (CHO) cell lines stably transfected with the permissive guanine nucleotide binding protein alpha 15 (Gals) and murine GPR119 were maintained in DMEM media containing FBS, penicillin-streptomycin, puromycin, and G418 (geneticin). Alternatively, human embryonic kidney (HEK)293 Flp-In cells (Invitrogen, Carlsbad, Calif.) were stably transfected with a human SNP variant (S309L) of GPR119 and maintained in DMEM media containing FBS, penicillin-streptomycin, and hygromycin. Agonist activation of the GPR119 receptor was measured in receptor transfected cells described above, treated with compounds of this invention, using a commercial homogenous time resolved fluorescence (HTRF) kit for measurement of cAMP (CisBio, Bedford, Mass.). The assay was performed in 96-well half-volume plates (murine) or 384-well plates (human) following the manufacturers instructions. Briefly, suspended cells were incubated with a dose titration of test compound at RT for 60 min, lysed, and incubated with HTRF reagents for an additional 60 min. The plate was read using an Envision multilabel reader (Perkin Elmer) adjusted to read time resolved fluorescence and the cAMP concentrations were extrapolated from a cAMP calibration curve. […] The concentration of test compound required to stimulate a half-maximal response (EC50), and efficacy as compared to an internal agonist control, was determined from a sigmoidal 4-parameter curve fit of the resulting plot of normalized activity versus compound concentration.
row,Compound,EC50
1,"CS(=O)(=O)c1ccc(COC[C@H]2C[C@@H]2C2CCN(C(=O)OC3CC3)CC2)cc1 [Example 16, cyclopropyl 4-((1R,2S)-2-(((4-(methylsulfonyl)benzyl)oxy)methyl)cyclopropyl)piperidine-1-carboxylate]",5.7 nM
2,"CC1(OC(=O)N2CCC([C@H]3C[C@@H]3COCc3ccc(S(C)(=O)=O)c(F)c3)CC2)CC1 [Example 17, 1-methylcyclopropyl 4-((1R,2S)-2-(((3-fluoro-4-(methylsulfonyl)benzyl)oxy)methyl)cyclopropyl)piperidine-1-carboxylate]",4.6 nM
3,"CC1(OC(=O)N2CCC([C@H]3C[C@@H]3COCc3ccc(S(C)(=O)=O)cc3)CC2)CC1 [Example 18, 1-methylcyclopropyl 4-((1R,2S)-2-(((4-(methylsulfonyl)benzyl)oxy)methyl)cyclopropyl)piperidine-1-carboxylate]",6.4 nM
4,"CC(C)OC(=O)N1CCC([C@H]2C[C@@H]2COCc2ccc(S(C)(=O)=O)cc2)CC1 [Example 19, isopropyl 4-((1R,2S)-2-(((4-(methylsulfonyl)benzyl)oxy)methyl)cyclopropyl)piperidine-1-carboxylate]",9.1 nM
5,"CC(C)OC(=O)N1CCC([C@H]2C[C@@H]2COCc2ccc(S(C)(=O)=O)c(F)c2)CC1 [Example 20, isopropyl 4-((1R,2S)-2-(((3-fluoro-4-(methylsulfonyl)benzyl)oxy)methyl)cyclopropyl)piperidine-1-carboxylate]",5.8 nM
6,"CC(C)c1noc(N2CCC([C@H]3C[C@@H]3COCc3ccc(S(C)(=O)=O)cc3)CC2)n1 [Example 21, 3-isopropyl-5-(4-((1R,2S)-2-((4-(methylsulfonyl)benzyloxy)methyl)cyclopropyl)piperidin-1-yl)-1,2,4-oxadiazole]",3.8 nM
7,"CC(C)c1noc(N2CCC([C@H]3C[C@@H]3COCc3ccc(S(C)(=O)=O)c(F)c3)CC2)n1 [Example 22, 5-(4-((1R,2S)-2-(((3-fluoro-4-(methylsulfonyl)benzyl)oxy)methyl)cyclopropyl)piperidin-1-yl)-3-isopropyl-1,2,4-oxadiazole]",3.2 nM
8,"Cc1nnc(-c2ccc(OCC[C@@H]3C[C@H]3C3CCN(c4ncc(Cl)cn4)CC3)cc2F)o1 [Example 64, 2-(4-(2-((1S,2S)-2-(1-(5-chloropyrimidin-2-yl)piperidin-4-yl)cyclopropyl)ethoxy)-2-fluorophenyl)-5-methyl-1,3,4-oxadiazole]",8.4 nM
9,"CS(=O)(=O)c1ccc(OCC[C@@H]2C[C@H]2C2CCN(c3nc(C4CC4)no3)CC2)nc1 [Example 112, 3-cyclopropyl-5-(4-((1S,2S)-2-(2-((5-(methylsulfonyl)pyridin-2-yl)oxy)ethyl)cyclopropyl)piperidin-1-yl)-1,2,4-oxadiazole]",6.1 nM
10,"CCCc1noc(N2CCC([C@@H]3C[C@H]3CCOc3ccc(S(C)(=O)=O)cn3)CC2)n1 [Example 113, 5-(4-((1S,2S)-2-(2-((5-(methylsulfonyl)pyridin-2-yl)oxy)ethyl)cyclopropyl)piperidin-1-yl)-3-propyl-1,2,4-oxadiazole]",7.9 nM
11,"CS(=O)(=O)c1ccc(OCC[C@@H]2C[C@H]2C2CCN(c3nc(C4CCC4)no3)CC2)nc1 [Example 114, 3-cyclobutyl-5-(4-((1S,2S)-2-(2-((5-(methylsulfonyl)pyridin-2-yl)oxy)ethyl)cyclopropyl)piperidin-1-yl)-1,2,4-oxadiazole]",4.8 nM
12,"COCc1cnc(N2CCC([C@H]3C[C@@H]3CCNc3ncc(-n4cnnn4)cn3)CC2)nc1 [Example 124, N-(2-((1R,2S)-2-(1-(5-(methoxymethyl)pyrimidin-2-yl)piperidin-4-yl)cyclopropyl)ethyl)-5-(1H-tetrazol-1-yl)pyrimidin-2-amine]",5.2 nM
13,"CS(=O)(=O)c1ccc(OCC[C@@]2(C#N)C[C@@H]2C2CCN(c3ncc(Cl)cn3)CC2)cc1 [Example 127, (1S,2R)-2-(1-(5-chloropyrimidin-2-yl)piperidin-4-yl)-1-(2-(4-(methylsulfonyl)phenoxy)ethyl)cyclopropanecarbonitrile]",3 nM
14,"CS(=O)(=O)c1ccc(NCC[C@H]2C[C@@H]2C2CCN(c3ncc(Cl)cn3)CC2)cc1 [Example 128, N-(2-((1R,2S)-2-(1-(5-chloropyrimidin-2-yl)piperidin-4-yl)cyclopropyl)ethyl)-4-(methylsulfonyl)aniline]",6.7 nM
